Data on 18 molecules can be found in patent publication US20240228488A1 (TAKEDA PHARMACEUTICAL COMPANY LIMITED, priority 2021, published 2024).

The target in assay [1] is T1, plasma kallikrein (Homo sapiens, UniProt P03952).
T1 construct: from tissue
The assay is described as follows: Neat human plasma assay, FXIIa contact pathway-activated, PFR-AMC substrate. Conditions: citrated human plasma 78% final, 10 nM human FXIIa, 100 μM PFR-AMC; read-out: Human Plasma Assay: IC90. In kind it is biochemical. As for the experimental part: To analyze inhibition of plasma kallikrein in an ex vivo setting, the potency of compounds was measure in contact pathway-activated plasma assays. In a fluorogenic peptide substrate assay, test compounds dissolved in DMSO were added to sodium citrate collected human or rat plasma in a 96-well microplate. Alternatively, citrated plasma was collected from rats administered the compounds orally or by IV. 10 nM of human FXIIa (Enzyme Research Laboratories) diluted in pKal buffer (20 mM Tris-HCl, pH 7.5, 150 mM NaCl, 1 mM EDTA, 0.1% PEG-8000, and 0.1% Triton X-100) was added to the plasma, followed by the 100 μM of the profluorescent, synthetic plasma kallikrein substrate PFR-AMC (also diluted in pKal buffer). Final plasma concentration in the reaction was 78%. Fluorescence was immediately monitored by excitation/emission wavelengths of 360 nm/480 nm respectively over a period of 5 minutes in a microplate reader. The resulting linear increase in fluorescence emission (reflecting pKal proteolysis of PFR-AMC substrate) was fit to extract a proteolytic rate (fluorescent units over time), and this rate was subsequently plotted against compound inhibitor concentration. Resulting plots were fit to a standard 4-parameter IC50/IC90 equation to determine min/max values, IC50/90, and slope. All experimental steps were performed at room temperature. Table 50 provides results of the assay.

Assay [2] has as its target human activated kallikrein enzyme (Homo sapiens, UniProt P03952). Description: Plasma kallikrein inhibition, fluorogenic PFR-AMC substrate, 500 pM activated kallikrein format. Format: biochemical. Conditions: 500 pM activated kallikrein, 300 uM PFR-AMC, 30 min preincubation, 10 min reaction; read-out: Primary Dose Response Assay: Average EC50. The method in brief: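 Fluorescence (ex 380/em 460 nm) is read after 10 min of 300 uM PFR-AMC turnover by 500 pM enzyme at RT. Compounds sit with enzyme for 30 min beforehand. Buffer is Tris (pH 7.5) with EDTA, NaCl, PEG-400 and Triton X-100; EC50 values are banded.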

Sequence of human activated kallikrein enzyme (P03952 391-638 limits assumed): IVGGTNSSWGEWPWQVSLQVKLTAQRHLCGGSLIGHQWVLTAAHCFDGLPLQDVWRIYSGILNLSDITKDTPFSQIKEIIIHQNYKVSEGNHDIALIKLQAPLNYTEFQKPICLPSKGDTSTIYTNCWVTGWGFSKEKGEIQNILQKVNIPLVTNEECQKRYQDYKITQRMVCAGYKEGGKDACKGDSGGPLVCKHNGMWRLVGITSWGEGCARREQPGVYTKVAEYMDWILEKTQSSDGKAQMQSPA
Sequence of human activated kallikrein enzyme (P03952 20-390 partner limits assumed): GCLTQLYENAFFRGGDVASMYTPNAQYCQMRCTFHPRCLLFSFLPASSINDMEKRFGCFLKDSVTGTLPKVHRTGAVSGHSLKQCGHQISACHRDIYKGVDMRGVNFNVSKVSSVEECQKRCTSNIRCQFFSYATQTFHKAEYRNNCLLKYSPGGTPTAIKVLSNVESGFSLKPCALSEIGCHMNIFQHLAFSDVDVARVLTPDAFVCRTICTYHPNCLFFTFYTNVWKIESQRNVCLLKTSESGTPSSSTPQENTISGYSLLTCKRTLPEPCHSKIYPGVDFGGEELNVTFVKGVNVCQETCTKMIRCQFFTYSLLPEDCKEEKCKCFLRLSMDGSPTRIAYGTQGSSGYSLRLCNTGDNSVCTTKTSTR
T1 sequence (P03952 391-638 limits assumed): as the sequence (P03952 391-638 limits assumed) above
T1 sequence (P03952 20-390 partner limits assumed): as the sequence (P03952 20-390 partner limits assumed) above

Take `N#Cc1cc(C2CC2)cn2cc(CNc3cc(NC(=O)[C@H]4C[C@@H]4c4cccc(Cl)c4)ncn3)nc12` (racemic) [Example 71, rac-(1S*,2S*)-2-(3-chlorophenyl)-N-(6-(((8-cyano-6-cyclopropylimidazo[1,2-a]pyridin-2-yl)methyl)amino)pyrimidin-4-yl)cyclopropane-1-carboxamide]: the IC90 (commonly the concentration at which the effect reaches the 90% level) in assay [1] was in the range of 10000 to 48000 nM. Further, in assay [2], the EC50 (in general, the concentration at which the effect is half-maximal) fell in the range of 1 to 10 nM.

As for `N#Cc1ccc(Cl)cc1[C@H]1C[C@@H]1C(=O)Nc1cc(NCc2cn3cc(C4CC4)cc(N4CCCC4=O)c3n2)ccn1` (racemic) [Example 79, rac-(1S*2S*)-2-(5-chloro-2-cyanophenyl)-N-(4-(((6-cyclopropyl-8-(2-oxopyrrolidin-1-yl)imidazo[1,2-a]pyridin-2-yl)methyl)amino)pyridin-2-yl)cyclopropane-1-carboxamide], in assay [1], the IC90 was in the range of 400 to 1500 nM. For the same molecule, in assay [2], the EC50 was < 1 nM.

As for `N#Cc1ccc(Cl)cc1[C@H]1C[C@@H]1C(=O)Nc1cc(NCc2cn3cc(C4CC4)ccc3n2)ccn1` (racemic) [Example 82, rac-(1S*,2S*)-2-(5-chloro-2-cyanophenyl)-N-(4-(((6-cyclopropylimidazo[1,2-a]pyridin-2-yl)methyl)amino)pyridin-2-yl)cyclopropane-1-carboxamide], the concentration for an effect of 90% (IC90) in assay [1] lay within 10000 to 48000 nM. The concentration for a half-maximal effect (EC50) in assay [2] is < 1 nM.

Consider `N#CCCc1cc(C2CC2)cn2cc(CNc3ccnc(NC(=O)[C@H]4C[C@@H]4c4cccc(Cl)c4)c3)nc12` (racemic) [Example 87, rac-(1S*,2S*)-2-(3-chlorophenyl)-N-(4-(((8-(2-cyanoethyl)-6-cyclopropylimidazo[1,2-a]pyridin-2-yl)methyl)amino)pyridin-2-yl)cyclopropane-1-carboxamide], for which, in assay [1], the concentration for an effect of 90% (IC90) is 10000 to 48000 nM. Moreover, the 50% effective concentration (EC50) in assay [2] was in the range of 1 to 10 nM.

`N#Cc1ccc(Cl)cc1[C@@H]1C[C@H]1C(=O)Nc1cc(NCc2cn3cc(C4CC4)cc(CO)c3n2)ccn1` (racemic) [Example 100, rac-(1S*,2S*)-2-(5-chloro-2-cyanophenyl)-N-(4-(((6-cyclopropyl-8-(hydroxymethyl)imidazo[1,2-a]pyridin-2-yl)methyl)amino)pyridin-2-yl)cyclopropane-1-carboxamide]: the 90% effect concentration (IC90) in assay [1] was in the range of 10000 to 48000 nM. For the same molecule, the EC50 in assay [2] was < 1 nM.

As for `O=C(Nc1cc(NCc2cn3cc(C4CC4)ccc3n2)cnn1)[C@H]1C[C@@H]1c1cccc(Cl)c1` (racemic) [Example 101, rac-(1S*,2S*)-2-(3-chlorophenyl)-N-(5-(((6-cyclopropylimidazo[1,2-a]pyridin-2-yl)methyl)amino)pyridazin-3-yl)cyclopropane-1-carboxamide], the IC90 in assay [1] was 10000 to 48000 nM. For the same molecule, the EC50 in assay [2] was 1 to 10 nM.

`COCc1nc(NCc2cn3cc(C4CC4)ccc3n2)cc(NC(=O)[C@@H]2C[C@H]2c2cccc(Cl)c2)n1` (racemic) [Example 108, rac-(1S*,2S*)-2-(3-chlorophenyl)-N-(6-(((6-cyclopropylimidazo[1,2-a]pyridin-2-yl)methyl)amino)-2-(methoxymethyl)pyrimidin-4-yl)cyclopropane-1-carboxamide]: the concentration for an effect of 90% (IC90) in assay [1] is 10000 to 48000 nM. Moreover, the EC50 in assay [2] is 1 to 10 nM.

Consider `Cc1ccnc([C@H]2C[C@@H]2C(=O)Nc2cc(NCc3cn4cc(C5CC5)cc(N5CC(=O)N(C)C5=O)c4n3)nc(C3(O)COC3)n2)n1` (racemic) [Example 113, rac-(1S*,2S*)—N-(6-(((6-cyclopropyl-8-(3-methyl-2,4-dioxoimidazolidin-1-yl)imidazo[1,2-a]pyridin-2-yl)methyl)amino)-2-(3-hydroxyoxetan-3-yl)pyrimidin-4-yl)-2-(4-methylpyrimidin-2-yl)cyclopropane-1-carboxamide], for which the IC90 in assay [1] lay in the range of 400 to 1500 nM. Moreover, the EC50 in assay [2] was < 1 nM.

Turning to `Cc1ccnc([C@H]2C[C@@H]2C(=O)Nc2cc(NCc3cn4cc(C5CC5)cc(N5CC(=O)N(C)C5=O)c4n3)nc(C3(F)COC3)n2)n1` (racemic) [Example 114, rac-(1S*,2S*)—N-(6-(((6-cyclopropyl-8-(3-methyl-2,4-dioxoimidazolidin-1-yl)imidazo[1,2-a]pyridin-2-yl)methyl)amino)-2-(3-fluorooxetan-3-yl)pyrimidin-4-yl)-2-(4-methylpyrimidin-2-yl)cyclopropane-1-carboxamide], the IC90 in assay [1] is 400 to 1500 nM. The EC50 in assay [2] was in the range of 1 to 10 nM.

For the molecule `NCc1cc(C2CC2)cn2cc(CNc3ccnc(NC(=O)[C@H]4C[C@@H]4c4cccc(Cl)c4)c3)nc12` (racemic) [Example 120, rac-(1S*,2S*)—N-(4-(((8-(aminomethyl)-6-cyclopropylimidazo[1,2-a]pyridin-2-yl)methyl)amino)pyridin-2-yl)-2-(3-chlorophenyl)cyclopropane-1-carboxamide], the IC90 in assay [1] was 10000 to 48000 nM. The EC50 in assay [2] was < 1 nM.

Take `CC(C)(O)c1cc(C2CC2)cn2cc(CNc3ccnc(NC(=O)[C@H]4C[C@@H]4c4cc(Cl)ccc4C#N)c3)nc12` (racemic) [Example 131, rac-(1S*,2S*)-2-(5-chloro-2-cyanophenyl)-N-(4-(((6-cyclopropyl-8-(2-hydroxypropan-2-yl)imidazo[1,2-a]pyridin-2-yl)methyl)amino)pyridin-2-yl)cyclopropane-1-carboxamide]: the IC90 in assay [1] was 10000 to 48000 nM. Further, the EC50 in assay [2] was < 1 nM.

For `CN1CCN(c2cc(C3CC3)cn3cc(CNc4ccnc(NC(=O)[C@@H]5C[C@H]5c5cc(Cl)ccc5C#N)c4)nc23)CC1` (racemic) [Example 143, rac-(1S*,2S*)-2-(5-chloro-2-cyanophenyl)-N-(4-(((6-cyclopropyl-8-(4-methylpiperazin-1-yl)imidazo[1,2-a]pyridin-2-yl)methyl)amino)pyridin-2-yl)cyclopropane-1-carboxamide], the IC90 in assay [1] fell in the range of 400 to 1500 nM. Also, the EC50 in assay [2] was < 1 nM.

For `O=C(Nc1cc(NCc2cn3cc(C4CC4)ccc3n2)ccn1)[C@H]1C[C@@H]1c1cc(Cl)ccc1-n1cnnn1` (racemic) [Example 287, rac-(1S*,2S*)-2-(5-chloro-2-(1H-tetrazol-1-yl)phenyl)-N-(4-(((6-cyclopropylimidazo[1,2-a]pyridin-2-yl)methyl)amino)pyridin-2-yl)cyclopropane-1-carboxamide], the IC90 in assay [1] lay within 10000 to 48000 nM. Besides, the EC50 in assay [2] is < 1 nM.

Take `N#Cc1ccc(Cl)cc1[C@H]1C[C@@H]1C(=O)Nc1cc(NCc2cn3cc(C4CC4)cc(COCCO)c3n2)ccn1` (racemic) [Example 289, rac-(1S*,2S*)-2-(5-chloro-2-cyanophenyl)-N-(4-(((6-cyclopropyl-8-((2-hydroxyethoxy)methyl)imidazo[1,2-a]pyridin-2-yl)methyl)amino)pyridin-2-yl)cyclopropane-1-carboxamide]: the IC90 in assay [1] was in the range of 1500 to 10000 nM. The EC50 in assay [2] is < 1 nM.

In the case of `O=C(Nc1cc(NCc2cn3cc(C4CC4)cc(C4(F)COC4)c3n2)ccn1)[C@H]1C[C@@H]1c1cccc(Cl)c1` (racemic) [Example 294, rac-(1S*,2S*)-2-(3-chlorophenyl)-N-(4-(((6-cyclopropyl-8-(3-fluorooxetan-3-yl)imidazo[1,2-a]pyridin-2-yl)methyl)amino)pyridin-2-yl)cyclopropane-1-carboxamide], the IC90 in assay [1] is 10000 to 48000 nM. Also, the concentration for a half-maximal effect (EC50) in assay [2] was < 1 nM.

For the molecule `Cc1ccnc([C@H]2C[C@@H]2C(=O)Nc2cc(NCc3cn4cc(C5CC5)cc(S(C)(=O)=O)c4n3)ncn2)n1` (racemic) [Example 322, rac-(1S*,2S*)—N-(6-(((6-cyclopropyl-8-(methylsulfonyl)imidazo[1,2-a]pyridin-2-yl)methyl)amino)pyrimidin-4-yl)-2-(4-methylpyrimidin-2-yl)cyclopropane-1-carboxamide], the IC90 in assay [1] is 400 to 1500 nM. Besides, in assay [2], the half-maximal effective concentration (EC50) is < 1 nM.

As for `CC(C)(O)c1cc(C2CC2)cn2cc(CNc3cc(NC(=O)[C@H]4C[C@@H]4c4cc(Cl)ccc4C#N)ncn3)nc12` (racemic) [Example 337, (rac-(1S*,2S*))-2-(5-chloro-2-cyanophenyl)-N-(6-(((6-cyclopropyl-8-(2-hydroxypropan-2-yl)imidazo[1,2-a]pyridin-2-yl)methyl)amino)pyrimidin-4-yl)cyclopropane-1-carboxamide], the IC90 in assay [1] was 10000 to 48000 nM. Moreover, the EC50 in assay [2] lay within 1 to 10 nM.

`Cc1cc(NCc2cn3cc(C4CC4)ccc3n2)cc(NC(=O)[C@H]2C[C@@H]2c2cc(Cl)ccc2C#N)n1` (racemic) [Example 342, rac-(1S*,2S*)-2-(5-chloro-2-cyanophenyl)-N-(4-(((6-cyclopropylimidazo[1,2-a]pyridin-2-yl)methyl)amino)-6-methylpyridin-2-yl)cyclopropane-1-carboxamide]: the IC90 in assay [1] was 1500 to 10000 nM. Moreover, the concentration for a half-maximal effect (EC50) in assay [2] is < 1 nM.
